Measured values from ChEMBL document CHEMBL4699607, “Design, synthesis, and computational validation of novel compounds selectively targeting HER2-expressing breast cancer” (Bioorg Med Chem Lett, 2020).
Activity calls are given as the source filed them. No cut-off for these calls is given here.

Assays:
MCF7 [1] = experiment: Cytotoxicity against human MCF-7 assessed as reduction in cell viability by SRB assay
SK-BR-3 [2] = experiment: Cytotoxicity against human SKBr3 assessed as reduction in cell viability by SRB assay
MCF7 [3] = experiment: Cytotoxicity against human MCF-7 assessed as reduction cell viability at 10 uM by SRB assay; type: functional
SK-BR-3 [4] = experiment: Cytotoxicity against human SKBr3 assessed as reduction cell viability at 10 uM by SRB assay; type: functional
[5] = target: Receptor tyrosine-protein kinase erbB-2 (Homo sapiens) (UniProt P04626); experiment: Inhibition of HER2 (unknown origin) at 10 uM by ELISA
MDA-MB-231 = experiment: Cytotoxicity against human MDA-MB-231 cells assessed as reduction in cell viability at 10 uM by SRB assay; type: functional, cell-based

Chain of Receptor tyrosine-protein kinase erbB-2 (Homo sapiens) (P04626 whole entry): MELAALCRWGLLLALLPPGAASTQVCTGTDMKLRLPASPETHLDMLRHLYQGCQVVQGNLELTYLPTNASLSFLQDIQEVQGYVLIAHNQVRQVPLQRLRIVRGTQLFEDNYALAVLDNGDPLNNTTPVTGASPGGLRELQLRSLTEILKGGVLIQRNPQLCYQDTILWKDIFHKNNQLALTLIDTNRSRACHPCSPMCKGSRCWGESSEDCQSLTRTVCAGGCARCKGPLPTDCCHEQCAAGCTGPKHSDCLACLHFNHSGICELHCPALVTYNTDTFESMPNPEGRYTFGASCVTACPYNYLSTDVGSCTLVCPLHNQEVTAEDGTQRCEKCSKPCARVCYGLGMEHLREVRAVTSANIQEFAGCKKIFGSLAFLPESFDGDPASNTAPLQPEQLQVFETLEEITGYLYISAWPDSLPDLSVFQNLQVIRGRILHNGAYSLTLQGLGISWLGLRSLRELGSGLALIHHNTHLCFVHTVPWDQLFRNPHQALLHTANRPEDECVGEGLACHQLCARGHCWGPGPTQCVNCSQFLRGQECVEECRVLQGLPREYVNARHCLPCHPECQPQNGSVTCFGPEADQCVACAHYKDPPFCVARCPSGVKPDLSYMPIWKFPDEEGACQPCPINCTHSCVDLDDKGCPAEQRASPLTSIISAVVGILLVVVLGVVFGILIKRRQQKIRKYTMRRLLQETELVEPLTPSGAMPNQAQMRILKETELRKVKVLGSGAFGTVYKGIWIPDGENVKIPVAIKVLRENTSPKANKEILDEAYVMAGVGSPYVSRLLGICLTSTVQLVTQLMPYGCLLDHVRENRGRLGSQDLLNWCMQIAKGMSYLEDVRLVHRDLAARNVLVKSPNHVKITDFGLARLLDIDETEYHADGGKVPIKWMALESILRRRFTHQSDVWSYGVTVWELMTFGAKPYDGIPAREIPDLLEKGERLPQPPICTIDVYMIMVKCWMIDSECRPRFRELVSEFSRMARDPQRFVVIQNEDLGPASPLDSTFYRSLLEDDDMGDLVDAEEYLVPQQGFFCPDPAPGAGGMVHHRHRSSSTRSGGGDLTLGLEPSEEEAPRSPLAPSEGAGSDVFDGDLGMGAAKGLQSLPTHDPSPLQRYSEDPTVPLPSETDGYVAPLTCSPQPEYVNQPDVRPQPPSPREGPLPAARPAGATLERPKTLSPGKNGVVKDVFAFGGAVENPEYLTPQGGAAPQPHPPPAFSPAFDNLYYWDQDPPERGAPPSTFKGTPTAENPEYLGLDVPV

| inhibition [5] | Structure (SMILES) | IC50 (MCF7 [1]) | IC50 (SK-BR-3 [2]) | inhibition at 10 µM (MCF7 [3]) | inhibition at 10 µM (SK-BR-3 [4]) | inhibition (MDA-MB-231) |
| --- | --- | --- | --- | --- | --- | --- |
| 87% | S=C(Nc1ccc(Cl)cc1Cl)Nc1ncccc1Br | 1300 nM | 730 nM | 72.4% | 79.7% | inactive |
| 82.6% | S=C(Nc1ccc(Cl)cc1Br)Nc1ncccc1Br | 2500 nM | 3400 nM | 64.1% | 74.8% | inactive |
| 84.7% | S=C(NCCc1ccccc1)Nc1ncccc1Br | 16200 nM | 1110 nM | 63% | 78.8% | inactive |

The next lines start with the compound.

| Structure (SMILES) | inhibition [5] | IC50 (MCF7 [1]) | IC50 (SK-BR-3 [2]) | inhibition at 10 µM (MCF7 [3]) | inhibition at 10 µM (SK-BR-3 [4]) | inhibition (MDA-MB-231) |
| --- | --- | --- | --- | --- | --- | --- |
| COc1ccccc1CNC(=O)NS(=O)(=O)c1ccccc1 |  |  |  | 10.3% |  | inactive |
| Cc1ccc(S(=O)(=O)NC(=O)Nc2ncccc2Br)cc1 |  |  |  | 11.2% |  | inactive |
